Reference: paper PMC10485003, “Antibiotic hyper-resistance in a class I aminoacyl-tRNA synthetase with altered active site signature motif” (Nature Communications, 2023)
Several values for one entry are separate records, joined by “and”; a condition that tells them apart may be missing. Equal entries are not always repeated.

Target: T1, mut-GVHH PmIleRS2 (Priestia megaterium, UniProt A0A0B6AVD3, G56H/H54G)
T1 sequence (A0A0B6AVD3 1-1032 H54G/G56H): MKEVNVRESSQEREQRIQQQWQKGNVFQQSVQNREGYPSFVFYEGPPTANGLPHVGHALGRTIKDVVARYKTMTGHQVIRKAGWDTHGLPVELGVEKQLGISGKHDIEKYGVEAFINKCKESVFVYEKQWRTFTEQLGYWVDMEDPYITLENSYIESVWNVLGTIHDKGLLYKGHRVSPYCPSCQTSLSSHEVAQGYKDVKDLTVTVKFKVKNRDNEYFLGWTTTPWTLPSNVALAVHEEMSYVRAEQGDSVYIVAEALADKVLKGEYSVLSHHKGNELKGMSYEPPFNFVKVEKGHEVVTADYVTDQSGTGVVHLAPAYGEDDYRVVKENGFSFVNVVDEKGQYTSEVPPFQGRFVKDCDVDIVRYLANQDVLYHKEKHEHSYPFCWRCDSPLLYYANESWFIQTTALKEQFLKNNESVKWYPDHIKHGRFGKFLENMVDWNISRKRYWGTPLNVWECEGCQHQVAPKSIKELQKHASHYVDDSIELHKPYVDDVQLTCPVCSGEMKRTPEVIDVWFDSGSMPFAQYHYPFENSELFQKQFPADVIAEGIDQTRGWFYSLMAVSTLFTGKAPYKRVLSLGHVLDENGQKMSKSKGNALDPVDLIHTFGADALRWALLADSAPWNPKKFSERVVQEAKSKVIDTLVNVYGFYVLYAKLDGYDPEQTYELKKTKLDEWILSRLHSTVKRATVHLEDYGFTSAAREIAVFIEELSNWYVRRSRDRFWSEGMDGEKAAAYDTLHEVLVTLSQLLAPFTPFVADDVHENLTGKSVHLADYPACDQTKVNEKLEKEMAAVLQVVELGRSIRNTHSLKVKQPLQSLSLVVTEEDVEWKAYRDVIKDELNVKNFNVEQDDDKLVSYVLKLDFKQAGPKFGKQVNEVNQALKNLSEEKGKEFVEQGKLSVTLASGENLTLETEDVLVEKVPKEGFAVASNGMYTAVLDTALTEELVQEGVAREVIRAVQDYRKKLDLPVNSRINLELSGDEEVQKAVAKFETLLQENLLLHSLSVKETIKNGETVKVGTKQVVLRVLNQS
Assay: ATP-PPi exchange assay, mupirocin inhibition of amino acid activation
Format: biochemical, Priestia (Bacillus) megaterium
Procedure: L-Ile and ATP concentrations ranged from 1/10 KM to 10 KM values. When measuring the KI towards one of the substrates, the other was held in saturation (concentrations at least 10 KM). The aliquots of the reaction mixture (1–2.5 μl) were quenched in 2 volumes of 500 mM NaOAc pH = 4.5, 0.1% SDS, and formed ^32P-ATP was separated from the remaining ^32P-PPi by thin-layer chromatography on Polygram CEL 300 PEI UV254 TLC plates (Macherey-Nagel, cat: 801063) using 750 mM KH2PO4 pH=3.5, 4 M urea buffer. Visualization and quantification of the signals was performed using a Typhoon Phosphoimager 5 (General Electric) and accompanying ImageQuant™ TL software (SV: 10.2). The kinetic constants were determined using a global fit option of the competitive inhibition model of GraphPad Prism 6 software (SV: 6.01). All experiments were performed in triplicates. The kcat was determined by dividing the maximal velocity, VM, with the used enzyme concentration. […]
variable substrate (ATP or Ile) was varied in the range of 0.1 KM to 10 KM. The other substrate (Ile or ATP) was kept in excess at 5 to 10 KM. Data were globally fitted to the competitive inhibition model using GraphPad prism 6.01 for Windows software. The values represent the average value ± SD of three independent experiments. Source data are provided as a Source Data file.

## C/C(=C\C(=O)OCCCCCCCCC(=O)O)C[C@@H]1OC[C@H](C[C@@H]2O[C@H]2[C@@H](C)[C@H](C)O)[C@@H](O)[C@H]1O [mupirocin]
KI (MUP)ATP, amino acid activation assay, ATP as variable substrate, average ± SD of three independent experiments
  Ki: 480 ± 10 µM
KI (MUP)Ile, amino acid activation step, ATP/PPi exchange assay, Ile varied, ATP saturating, average ± SD of three independent experiments
  Ki: 460 ± 10 µM
KI, single replicates, mupirocin inhibition towards Ile, GraphPad Prism output, Repl1-Repl3
  Ki: 470 µM and 480 µM and 420 µM
C (mupirocin) = 0.5 mM, c (Ile) 100.0 μM, Replica 1
  vo: 0.01849 mM/min
C (mupirocin) = 0.5 mM, c (Ile) 100.0 μM, Replica 2
  vo: 0.01948 mM/min
C (mupirocin) = 0.5 mM, c (Ile) 250.0 μM, Replica 1
  vo: 0.03623 mM/min
C (mupirocin) = 0.5 mM, c (Ile) 250.0 μM, Replica 2
  vo: 0.03682 mM/min
C (mupirocin) = 0.5 mM, c (Ile) 250.0 μM, Replica 3
  vo: 0.03653 mM/min
C (mupirocin) = 0.5 mM, c (Ile) 500.0 μM, Replica 1
  vo: 0.05582 mM/min
C (mupirocin) = 0.5 mM, c (Ile) 500.0 μM, Replica 2
  vo: 0.05871 mM/min
C (mupirocin) = 0.5 mM, c (Ile) 500.0 μM, Replica 3
  vo: 0.05786 mM/min
C (mupirocin) = 0.5 mM, c (Ile) 1000.0 μM, Replica 1
  vo: 0.07169 mM/min
C (mupirocin) = 0.5 mM, c (Ile) 1000.0 μM, Replica 2
  vo: 0.07587 mM/min
C (mupirocin) = 0.5 mM, c (Ile) 1000.0 μM, Replica 3
  vo: 0.07605 mM/min
C (mupirocin) = 0.5 mM, c (Ile) 1500.0 μM, Replica 1
  vo: 0.08634 mM/min
C (mupirocin) = 0.5 mM, c (Ile) 1500.0 μM, Replica 2
  vo: 0.08442 mM/min
C (mupirocin) = 0.5 mM, c (Ile) 1500.0 μM, Replica 3
  vo: 0.08419 mM/min
C (mupirocin) = 1.0 mM, c (Ile) 100.0 μM, Replica 1
  vo: 0.01236 mM/min
C (mupirocin) = 1.0 mM, c (Ile) 100.0 μM, Replica 2
  vo: 0.01246 mM/min
C (mupirocin) = 1.0 mM, c (Ile) 100.0 μM, Replica 3
  vo: 0.01228 mM/min
C (mupirocin) = 1.0 mM, c (Ile) 250.0 μM, Replica 1
  vo: 0.0294 mM/min
C (mupirocin) = 1.0 mM, c (Ile) 250.0 μM, Replica 2
  vo: 0.02992 mM/min
C (mupirocin) = 1.0 mM, c (Ile) 250.0 μM, Replica 3
  vo: 0.02794 mM/min
C (mupirocin) = 1.0 mM, c (Ile) 500.0 μM, Replica 1
  vo: 0.04465 mM/min
C (mupirocin) = 1.0 mM, c (Ile) 500.0 μM, Replica 2
  vo: 0.04713 mM/min
C (mupirocin) = 1.0 mM, c (Ile) 500.0 μM, Replica 3
  vo: 0.04492 mM/min
C (mupirocin) = 1.0 mM, c (Ile) 1000.0 μM, Replica 1
  vo: 0.06444 mM/min
C (mupirocin) = 1.0 mM, c (Ile) 1000.0 μM, Replica 2
  vo: 0.06152 mM/min
C (mupirocin) = 1.0 mM, c (Ile) 1000.0 μM, Replica 3
  vo: 0.06395 mM/min
C (mupirocin) = 1.0 mM, c (Ile) 1500.0 μM, Replica 1
  vo: 0.07511 mM/min
C (mupirocin) = 1.0 mM, c (Ile) 1500.0 μM, Replica 2
  vo: 0.07278 mM/min
C (mupirocin) = 1.0 mM, c (Ile) 1500.0 μM, Replica 3
  vo: 0.07621 mM/min
C (mupirocin) = 2.5 mM, c (Ile) 100.0 μM, Replica 1
  vo: 0.00609 mM/min
C (mupirocin) = 2.5 mM, c (Ile) 100.0 μM, Replica 2
  vo: 0.00589 mM/min
C (mupirocin) = 2.5 mM, c (Ile) 100.0 μM, Replica 3
  vo: 0.00628 mM/min
C (mupirocin) = 2.5 mM, c (Ile) 250.0 μM, Replica 1
  vo: 0.01433 mM/min
C (mupirocin) = 2.5 mM, c (Ile) 250.0 μM, Replica 2
  vo: 0.01642 mM/min
C (mupirocin) = 2.5 mM, c (Ile) 250.0 μM, Replica 3
  vo: 0.01353 mM/min
C (mupirocin) = 2.5 mM, c (Ile) 500.0 μM, Replica 1
  vo: 0.02701 mM/min
C (mupirocin) = 2.5 mM, c (Ile) 500.0 μM, Replica 2
  vo: 0.02762 mM/min
C (mupirocin) = 2.5 mM, c (Ile) 500.0 μM, Replica 3
  vo: 0.02637 mM/min
C (mupirocin) = 2.5 mM, c (Ile) 1000.0 μM, Replica 1
  vo: 0.042 mM/min
C (mupirocin) = 2.5 mM, c (Ile) 1000.0 μM, Replica 2
  vo: 0.04503 mM/min
C (mupirocin) = 2.5 mM, c (Ile) 1000.0 μM, Replica 3
  vo: 0.03982 mM/min
C (mupirocin) = 2.5 mM, c (Ile) 1500.0 μM, Replica 1
  vo: 0.05219 mM/min
C (mupirocin) = 2.5 mM, c (Ile) 1500.0 μM, Replica 2
  vo: 0.055 mM/min
C (mupirocin) = 2.5 mM, c (Ile) 1500.0 μM, Replica 3
  vo: 0.05194 mM/min
C (mupirocin) = 5.0 mM, c (Ile) 100.0 μM, Replica 1
  vo: 0.00403 mM/min
C (mupirocin) = 5.0 mM, c (Ile) 100.0 μM, Replica 2
  vo: 0.00438 mM/min
C (mupirocin) = 5.0 mM, c (Ile) 100.0 μM, Replica 3
  vo: 0.00348 mM/min
C (mupirocin) = 5.0 mM, c (Ile) 250.0 μM, Replica 1
  vo: 0.0082 mM/min
C (mupirocin) = 5.0 mM, c (Ile) 250.0 μM, Replica 2
  vo: 0.00786 mM/min
